Measurements taken from the supplement of paper PMC10307832.

Columns and labels:
Test in all cases: relative viability (nuclei count vs DMSO), 5 days (fraction); higher = more cells survive
[1] = compound: CC(=O)c1c(C)c2cnc(Nc3ccc(N4CCNCC4)cn3)nc2n(C2CCCC2)c1=O [Palbociclib] + CS(=O)(=O)N1CCN(Cc2cc3nc(-c4cccc5[nH]ncc45)nc(N4CCOCC4)c3s2)CC1 [Pictilisib] (partner 1 µM)
Procedure, shortened: (§1)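 Lung cancer cell lines, seeded in 1536-well plates, were treated the following day by pin tool with a single drug or with five library-drug doses (not always all listed) in √10 steps on top of a fixed anchor-drug dose. Cells were fixed and nuclei stained in one step after 5 days, and nuclei were counted. Relative viability is the nuclei count for treated wells divided by that for vehicle wells, reported as medians of duplicate plates.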

[2] = compound: CC(=O)c1c(C)c2cnc(Nc3ccc(N4CCNCC4)cn3)nc2n(C2CCCC2)c1=O [Palbociclib] + Cc1cc(Nc2cc(N3CCN(C)CC3)nc(Sc3ccc(NC(=O)C4CC4)cc3)n2)n[nH]1 [Tozasertib] (partner 0.1 µM)
Procedure, shortened: as §1

[3] = compound: CC(=O)c1c(C)c2cnc(Nc3ccc(N4CCNCC4)cn3)nc2n(C2CCCC2)c1=O [Palbociclib] + Nc1ncn([C@H]2C[C@H](O)[C@@H](CO)O2)c(=O)n1 [Decitabine] (partner 2 µM)
Procedure, shortened: as §1

[4] = compound: CC(=O)c1c(C)c2cnc(Nc3ccc(N4CCNCC4)cn3)nc2n(C2CCCC2)c1=O [Palbociclib] + Nc1nc2[nH]cc(CCc3ccc(C(=O)N[C@@H](CCC(=O)O)C(=O)O)cc3)c2c(=O)[nH]1 [Pemetrexed] (partner 0.2 µM)
Procedure, shortened: as §1

Cell Line | relative viability ([1]; first compound 0.01 µM) | relative viability ([1]; first compound 0.03162 µM) | relative viability ([1]; first compound 0.1 µM) | relative viability ([1]; first compound 0.3162 µM) | relative viability ([1]; first compound 1 µM) | relative viability ([2]; first compound 0.01 µM) | relative viability ([2]; first compound 0.03162 µM) | relative viability ([2]; first compound 0.1 µM) | relative viability ([2]; first compound 0.3162 µM) | relative viability ([2]; first compound 1 µM) | relative viability ([3]; first compound 0.01 µM) | relative viability ([3]; first compound 0.03162 µM) | relative viability ([3]; first compound 0.1 µM) | relative viability ([3]; first compound 0.3162 µM) | relative viability ([3]; first compound 1 µM) | relative viability ([4]; first compound 0.01 µM) | relative viability ([4]; first compound 0.03162 µM) | relative viability ([4]; first compound 0.1 µM) | relative viability ([4]; first compound 0.3162 µM) | relative viability ([4]; first compound 1 µM)
EMC-BAC-2 | 0.553 | 0.445 | 0.442 | 0.414 | 0.345 | 0.24 | 0.298 | 0.277 | 0.285 | 0.29 | 1.02 | 0.818 | 0.869 | 0.783 | 0.604 | 0.449 | 0.476 | 0.427 | 0.417 | 0.428
EPLC-272H | 0.377 |  | 0.272 | 0.266 | 0.262 | 0.326 |  | 0.331 | 0.339 | 0.42 | 0.4 |  | 0.322 | 0.309 | 0.324 | 0.278 | 0.322 | 0.408 | 0.539 | 0.512
H3255 | 0.517 | 0.376 | 0.394 | 0.434 | 0.261 | 0.702 | 0.613 | 0.522 | 0.591 | 0.309 | 0.733 | 0.514 | 0.522 | 0.525 | 0.384 | 0.602 | 0.59 | 0.576 | 0.488 | 0.397
HARA | 0.406 | 0.347 | 0.225 | 0.202 | 0.169 | 0.108 |  | 0.0705 | 0.102 | 0.0769 | 0.699 | 0.474 | 0.418 | 0.319 | 0.449 | 0.253 | 0.265 | 0.274 | 0.262 | 0.212
HCC-15 | 0.71 |  | 0.617 | 0.591 | 0.603 | 0.454 |  | 0.38 | 0.372 | 0.343 | 0.662 |  | 0.535 | 0.523 | 0.498 | 0.217 |  | 0.246 | 0.247 | 0.227
HCC-44 | 0.658 | 0.538 | 0.544 | 0.642 | 0.521 | 0.871 | 0.781 | 1.1 | 1.1 | 1.11 | 0.944 | 0.866 | 0.948 | 0.873 | 1 | 0.626 | 0.63 | 0.592 | 0.634 | 0.666
HCC-78 | 0.206 | 0.202 | 0.19 | 0.251 | 0.154 | 0.451 | 0.383 | 0.319 | 0.354 | 0.334 | 0.651 | 0.629 | 0.773 | 0.694 | 0.429 | 0.894 | 0.88 | 0.935 | 0.942 | 0.943
HCC-366 | 0.137 |  | 0.168 | 0.14 | 0.0548 | 0.135 |  | 0.149 | 0.129 | 0.139 | 0.338 |  | 0.33 | 0.334 | 0.342 | 0.155 |  | 0.162 | 0.138 | 0.155
